# US20250195457A1, “PHARMACEUTICAL COMPOSITION FOR TREATMENT OF PARKINSON'S DISEASE” (Eisai R&D Management Co., Ltd., priority 2022, published 2025)
# Legend:
# [1] = tested on: Parkinson's disease model cynomolgus monkeys (MPTP); experiment: Test Example 1: NDSs after administration of Compound (I) alone in MPTP Parkinson's disease model monkeys; format: in vivo; parameters: key to Subgroup 2: Specific motor functions score: specific motor functions subscore, range 0-21; conditions: Istradefylline 60 mg/kg (G5)
# Method: (§1) The therapeutic effect of Compound (I) on Parkinson's disease was examined using Parkinson's disease model animals which are produced by administering MPTP (1-methyl-4-phenyl-1,2,3,6-tetrahydropyridine).
# MPTP was administered to male cynomolgus monkeys at the age of 4 to 5 to make Parkinson's disease model cynomolgus monkeys. MPTP was additionally administered to animals with neurologic deficit scores (Neurological deficit scores: NDSs, Schneider et al., “Development of levodopa-induced dyskinesias in parkinsonian monkeys may depend upon rate of symptom onset and/or duration of symptoms”, Brain Res., 2003, 990:38-44.) of less than 25.
# Eight Parkinson's disease model cynomolgus monkeys were randomized into 5 groups of approximately equal mean and variance in terms of Parkinson behavior rating (Tremor score) and body weight. On subsequent cycle 2, cycle 3, cycle 4 and cycle 5, the animals were crossed over to receive the other treatments. A wash out period of one week or more was set between each cycle.
# By the end of the study, each animal had received all the five treatments. Istradefylline is an adenosine A2A receptor antagonist approved as a drug for improving a wearing off phenomenon in Parkinson's disease being treated with a levodopa-containing preparation in the United States of America and Japan (Patent Literature 4). As a vehicle, an aqueous solution containing 0.43% (w/v) methyl cellulose 400, 10% (v/v) dimethyl sulfoxide (DMSO), and 4.5% (w/v) Cremophor (R) was used.
# (§2) Before the administration, and 1 hr., 4 hrs., and 24 hrs. after the administration of the test substances, the NDSs of the monkeys were evaluated. The evaluation items are as follows. The behavior evaluation was performed in a blinded manner. The NDSs of the groups were compared using Steel's test. The p-values of less than 0.05 were considered to be statistically significant.
# Subgroup 1: generalized behaviors (0-32) • 1.1a Appetite • 0: Normal • 1: Up to 30% food left • 2: Up to 65% food left • 3: Greater than 65% food left • 1.1b Response to offered food • 0: Responds to offered food • 1: Inconsistent response to offered food • 2: Little to no interest in offered food • 1.2 Overall activity • 0: Normal • 1: Mild hypokinesia; decrease in spontaneous movement • 2: Moderate hypokinesia; sparse spontaneous movement • 3: Severe hypokinesia; no spontaneous movement; tends to remain in one place • 1.3 Appearance • 0: Normal • 1: Mild but noticeable decrease in self-maintenance • 2: Moderate decrease in self-maintenance • 3: Severe lack of self-maintenance • 1.4 Posture • 0: Normal • 1: Minor flexing or stooping • 2: Moderate flexing or stooping; head and upper body almost parallel to floor of cage • 3: Severe flexing or stooping; head lowered to feet • 1.5 Balance • 0: Normal • 1: Mild loss on arising or movement • 2: Moderate loss on arising or movement; occasionally falls or supports self to keep from falling • 3: Severe loss of balance; falls • 1.6 Climbing • 0: Climbing observed with no delays in initiation/execution • 1: Mild deficit in ability to climb and support weight • 2: Moderate deficit in ability to climb and support weight; tends to ‘slide down’ • 3: Absence of any climbing behavior • 1.7 Tremor • 0: Absent • 1: Slight and intermittent • 2: Slight and persistent or moderate and intermittent • 3: Moderate/severe and persistent • 1.8 Freezing during movement • 0: Absent • 1: Occasional freezing for brief periods • 2: Occasional freezing for prolonged periods or frequent freezing for brief periods • 3: Prolonged and frequent freezing • 1.9 Facial expression • 0: Normal • 1: Mild hypomimia • 2: Moderate hypomimia • 3: Severe, masked fixed faces • 1.10 Defense reaction • 0: Normal • 1: Mild, noticeable reduction in reaction or slowed reaction, but can be provoked to react • 2: Moderate reduction in reaction; can produce facial display but not body reaction • 3: Little to no response
# Subgroup 2: Specific Motor Functions (0-21)
# [2] = tested on: levodopa-induced dyskinesia model cynomolgus monkeys; experiment: Test Example 3: dyskinesia score in levodopa-induced dyskinesia model monkeys; format: in vivo; parameters: key to Dyskinesia score: dyskinesia score 0 = normal home cage activity to 4 = severe stereotypy; conditions: Istradefylline 60 mg/kg (G4)
# Method: A levodopa/carbidopa mixture containing 80 mg/kg of levodopa and 20 mg/kg of carbidopa and having a solution volume of 5 mL/kg was orally administered to Parkinson's disease model cynomolgus monkeys at the age of 6 to 7 prepared in the same way as in Test Example 1 for 8 consecutive days to provide levodopa-induced dyskinesia model cynomolgus monkeys. The induction of dyskinesia was determined based on the “dyskinesia score” in accordance with the following behavior evaluation items in the following test on activity in home cages, and animals having dyskinesia scores of 1 or more on day 7 of the repeated administration of the levodopa/carbidopa mixture were used.
# Home cage activities corresponding to dyskinesia scores • 0: Normal home cage activity (exploring or inactivity, able to drink water, plays with mirror or caging, climbing of the walls). • 1: Some interference with normal activity, however able to climb walls. • 2: Occasional exploration of cage, some stereotypy • 3: Little normal movement, lack of climbing of walls, clear stereotypy • 4: Lack of normal home cage activity, lack of normal exploratory behavior and movement, severe stereotypy
# Seven levodopa-induced dyskinesia model cynomolgus monkeys were randomized into 4 groups of approximately equal mean and variance in terms of body weight. On subsequent cycles 2, 3, and 4, the animals were crossed over to receive the other treatment. A wash out period of one week or more was set between cycles.
# One of the seven animals was excluded from the evaluation of cycles 3 and 4 because it was unable to get up due to dyskinesia on day 8 in cycle 3 of the repeated administration of the levodopa/carbidopa mixture.
# By the end of the study, each animal had received all the four treatments. Each substance was administered 1 hr. after the administration on day 8 of the repeated administration of the levodopa/carbidopa mixture. As a vehicle, an aqueous solution containing 0.43% (w/v) methyl cellulose 400, 10% (v/v) dimethyl sulfoxide (DMSO), and 4.5% (w/v) Cremophor (R) were used.
# as §2, with “dyskinesia scores” for “NDSs”, “animals” for “monkeys”, “evaluated.” for “evaluated. The evaluation items are as follows.”
# [3] = tested on: Parkinson's disease model cynomolgus monkeys (MPTP); experiment: Test Example 2: NDSs after combined administration of Compound (I) and levodopa in MPTP Parkinson's disease model monkeys; format: in vivo
# Source text: as §1
# Parkinson's disease model cynomolgus monkeys were provided in the same way as in Test Example 1, and the therapeutic effect of the combined administration of Compound (I) and levodopa was examined.
# By the end of the study, each animal had received all the five treatments. As a vehicle, an aqueous solution containing 0.43% (w/v) methyl cellulose 400, 10% (v/v) dimethyl sulfoxide (DMSO), and 4.5% (w/v) Cremophor (R) was used.
# Before the administration, and 1 hr., 4 hrs., and 24 hrs. after the administration of the test substances, the NDSs of the monkeys were evaluated. The evaluation items and the evaluation methods are the same as in Test Example 1.
# [4] = tested on: Parkinson's disease mouse model; conditions: pre-onset treatment; cited from earlier work
# [5] = Levodopa 5 mg/kg (G3), 1 hr. after administration
# [6] = Levodopa 5 mg/kg (G3), 4 hrs. after administration
# [7] = Levodopa 5 mg/kg (G3), 24 hrs. after administration
# [8] = Levodopa 5 mg/kg (G3), Pre (before administration)
# [9] = Levodopa 10 mg/kg (G2), 1 hr. after administration
# [10] = Levodopa 10 mg/kg (G2), 4 hrs. after administration
# [11] = Levodopa 10 mg/kg (G2), 24 hrs. after administration
# [12] = Levodopa 10 mg/kg (G2), Pre (before administration)
smiles,measurement,setting,value
"CCn1c(=O)c2c(nc(/C=C/c3ccc(OC)c(OC)c3)n2C)n(CC)c1=O [Istradefylline, reference compound]",Subgroup 1: GENERALIZED BEHAVIORS score,[1]; 1 hr. after administration,16.1 ± 0.9
same,Subgroup 2: Specific motor functions score,[1]; 1 hr. after administration,12.3 ± 0.8
same,Total score of NDSs,[1]; 1 hr. after administration,28.4 ± 1.6
same,Tremor score,[1]; 1 hr. after administration,1.8 ± 0.2
same,Subgroup 1: GENERALIZED BEHAVIORS score,[1]; 4 hrs. after administration,14.5 ± 0.6
same,Subgroup 2: Specific motor functions score,[1]; 4 hrs. after administration,10.9 ± 0.5
same,Total score of NDSs,[1]; 4 hrs. after administration,25.4 ± 1.0
same,Tremor score,[1]; 4 hrs. after administration,1.6 ± 0.2
same,Subgroup 1: GENERALIZED BEHAVIORS score,[1]; 24 hrs. after administration,15.9 ± 0.9
same,Subgroup 2: Specific motor functions score,[1]; 24 hrs. after administration,12.1 ± 0.5
same,Total score of NDSs,[1]; 24 hrs. after administration,28.0 ± 1.2
same,Tremor score,[1]; 24 hrs. after administration,1.6 ± 0.2
same,Subgroup 1: GENERALIZED BEHAVIORS score,[1]; Pre (before administration),17.4 ± 0.9
same,Subgroup 2: Specific motor functions score,[1]; Pre (before administration),13.5 ± 0.4
same,Total score of NDSs,[1]; Pre (before administration),30.9 ± 1.3
same,Tremor score,[1]; Pre (before administration),2.1 ± 0.1
same,Dyskinesia score,[2]; 1 hr. after administration,1.8 ± 0.2
same,Dyskinesia score,[2]; 4 hrs. after administration,1.8 ± 0.2
same,Dyskinesia score,[2]; 24 hrs. after administration,1.8 ± 0.2
same,Dyskinesia score,[2]; Pre (before administration),1.7 ± 0.2
"N[C@@H](Cc1ccc(O)c(O)c1)C(=O)O [Levodopa, levodopa]",Subgroup 1: GENERALIZED BEHAVIORS score,[3]; [5],14.0 ± 0.7
same,Subgroup 2: Specific motor functions score,[3]; [5],11.0 ± 0.9
same,Total score of NDSs,[3]; [5],25.0 ± 1.6
same,Tremor score,[3]; [5],1.5 ± 0.2
same,Subgroup 1: GENERALIZED BEHAVIORS score,[3]; [6],15.0 ± 0.9
same,Subgroup 2: Specific motor functions score,[3]; [6],11.9 ± 0.8
same,Total score of NDSs,[3]; [6],26.9 ± 1.7
same,Tremor score,[3]; [6],1.8 ± 0.2
same,Subgroup 1: GENERALIZED BEHAVIORS score,[3]; [7],17.0 ± 0.7
same,Subgroup 2: Specific motor functions score,[3]; [7],13.6 ± 0.5
same,Total score of NDSs,[3]; [7],30.6 ± 1.1
same,Tremor score,[3]; [7],2.0 ± 0.0
same,Subgroup 1: GENERALIZED BEHAVIORS score,[3]; [8],17.4 ± 0.7
same,Subgroup 2: Specific motor functions score,[3]; [8],14.3 ± 0.5
same,Total score of NDSs,[3]; [8],31.6 ± 1.1
same,Tremor score,[3]; [8],2.0 ± 0.0
same,Subgroup 1: GENERALIZED BEHAVIORS score,[3]; [9],13.5 ± 0.9
same,Subgroup 2: Specific motor functions score,[3]; [9],10.9 ± 0.5
same,Total score of NDSs,[3]; [9],24.4 ± 1.2
same,Tremor score,[3]; [9],1.4 ± 0.2
same,Subgroup 1: GENERALIZED BEHAVIORS score,[3]; [10],15.0 ± 0.7
same,Subgroup 2: Specific motor functions score,[3]; [10],12.3 ± 0.5
same,Total score of NDSs,[3]; [10],27.3 ± 1.0
same,Tremor score,[3]; [10],1.4 ± 0.2
same,Subgroup 1: GENERALIZED BEHAVIORS score,[3]; [11],17.6 ± 0.7
same,Subgroup 2: Specific motor functions score,[3]; [11],14.0 ± 0.5
same,Total score of NDSs,[3]; [11],31.6 ± 1.0
same,Tremor score,[3]; [11],2.0 ± 0.0
same,Subgroup 1: GENERALIZED BEHAVIORS score,[3]; [12],17.8 ± 0.6
same,Subgroup 2: Specific motor functions score,[3]; [12],13.9 ± 0.4
same,Total score of NDSs,[3]; [12],31.6 ± 0.8
same,Tremor score,[3]; [12],2.0 ± 0.0
Cc1ccsc1C(=CCCN1CCC[C@@H](C(=O)O)C1)c1sccc1C [tiagabine],effect on nigrostriatal axis and motor dysfunction,[4],partially protects nigrostriatal axis to ameliorate motor dysfunction
